In patent publication US6545002B1 (University of Virginia Patent Foundation, priority 1999, dated 2003):
Where two headings read alike, the source gives them in different places.

Tests used:
[1] = target: T1, human A3 receptors (hA3) (Homo sapiens, UniProt P0DMS8); test: Displacement of [125I]AB-MECA binding at human A3 receptors expressed in HEK-293 cells (Table 4)
T1 construct: expressed in transfected cells; host or cells: HEK-293
T1 sequence (P0DMS8 1-318): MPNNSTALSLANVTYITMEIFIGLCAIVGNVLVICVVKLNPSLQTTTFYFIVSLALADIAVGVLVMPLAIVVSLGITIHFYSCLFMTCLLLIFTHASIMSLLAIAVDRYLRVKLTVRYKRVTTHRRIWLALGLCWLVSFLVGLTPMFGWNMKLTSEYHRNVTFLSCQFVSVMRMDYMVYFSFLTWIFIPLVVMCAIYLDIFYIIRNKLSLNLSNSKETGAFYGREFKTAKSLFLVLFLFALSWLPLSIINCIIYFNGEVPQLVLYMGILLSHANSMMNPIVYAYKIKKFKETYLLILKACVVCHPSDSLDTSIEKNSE

[2] = target: T2, rat A1 receptors (rA1) (Rattus norvegicus, UniProt P25099); test: Displacement of [3H]R-PIA binding in rat brain (cerebral cortical) membranes
T2 construct: to A1 receptors from rat cerebral cortical membranes; from tissue; host or cells: rat cerebral cortical (brain) membranes
T2 sequence (P25099 1-326): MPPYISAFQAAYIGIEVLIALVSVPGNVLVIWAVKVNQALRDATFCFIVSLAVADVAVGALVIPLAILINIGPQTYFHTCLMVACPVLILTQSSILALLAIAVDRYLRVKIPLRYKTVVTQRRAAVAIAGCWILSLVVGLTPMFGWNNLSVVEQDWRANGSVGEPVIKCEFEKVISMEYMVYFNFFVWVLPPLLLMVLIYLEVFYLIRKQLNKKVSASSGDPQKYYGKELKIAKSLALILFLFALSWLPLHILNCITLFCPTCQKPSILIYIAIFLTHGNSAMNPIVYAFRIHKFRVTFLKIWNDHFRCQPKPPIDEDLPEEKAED
Procedure: (§1) Bruns, R. F. et al., Naunyn-Schmiedeberg's Arch. […] Binding of [^3H]R-N^6-phenylisopropyladenosine. Schwabe, U. et al., Naunyn-Schmiedeberg's Arch. […] (Dupont NEN, Boston, Mass.) to A2A receptors from rat striatal membranes was performed as described. […] All non-radioactive compounds were initially dissolved in DMSO, and diluted with buffer to the final concentration, where the amount of DMSO never exceeded 2%. Incubations were terminated by rapid filtration over Whatman GF/B filters, using a Brandell cell harvester (Brandell, Gaithersburg, Md.). The tubes were rinsed three times with 3 mL buffer each.
(§2) At least six different concentrations of competitor, spanning 3 orders of magnitude adjusted appropriately for the IC50 of each compound, were used. IC50 values, calculated with the nonlinear regression method implemented in (Graph-Pad Prism, San Diego, Calif.), were converted to apparent Ki values as described. Linden, J., J. Cycl. Nucl.

[3] = target: T3, rat A2A receptors (rA2A) (Rattus norvegicus, UniProt P30543); test: Displacement of [3H]CGS 21680 binding in rat striatal membranes
T3 construct: to A2A receptors from rat striatal membranes was performed as described; from tissue; host or cells: rat striatal membranes
Procedure: as §1, §2

[4] = target: T4, human A2B receptors (hA2B) (Homo sapiens, UniProt P29275); test: Radioligand binding ([125I]ABOPX / [3H]ZM241385) at human A2B receptors expressed in HEK-293 cells
T4 construct: expressed in transfected cells; host or cells: HEK-293 (HEK-A2B, G418-selected)
T4 sequence (P29275 1-332): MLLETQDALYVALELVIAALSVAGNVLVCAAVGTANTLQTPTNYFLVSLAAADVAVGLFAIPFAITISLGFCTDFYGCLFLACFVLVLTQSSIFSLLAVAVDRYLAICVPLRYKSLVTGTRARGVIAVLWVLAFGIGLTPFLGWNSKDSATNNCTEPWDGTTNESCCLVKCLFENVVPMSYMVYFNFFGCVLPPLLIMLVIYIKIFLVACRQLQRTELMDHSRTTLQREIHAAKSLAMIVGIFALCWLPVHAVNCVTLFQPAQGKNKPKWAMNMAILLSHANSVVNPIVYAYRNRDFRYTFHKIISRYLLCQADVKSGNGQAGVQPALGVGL

[5] = target: recombinant human A2A receptors (hA2A) (Homo sapiens, UniProt P29274); test: Radioligand binding (125I-ZM241385) at recombinant human A2A receptors in HEK-293 cells
Procedure: (§3) The potency of the xanthine derivatives at human A2B receptors was evaluated using two binding assays. […] In order to determine selectivity, the xanthines were evaluated using standard binding assays at A1, A2A, and A3 receptors.

[6] = target: T5, recombinant human A1 receptors (hA1) (Homo sapiens, UniProt P30542); test: Radioligand binding ([3H]CPX) at recombinant human A1 receptors in HEK-293 cells
T5 sequence (P30542 1-326): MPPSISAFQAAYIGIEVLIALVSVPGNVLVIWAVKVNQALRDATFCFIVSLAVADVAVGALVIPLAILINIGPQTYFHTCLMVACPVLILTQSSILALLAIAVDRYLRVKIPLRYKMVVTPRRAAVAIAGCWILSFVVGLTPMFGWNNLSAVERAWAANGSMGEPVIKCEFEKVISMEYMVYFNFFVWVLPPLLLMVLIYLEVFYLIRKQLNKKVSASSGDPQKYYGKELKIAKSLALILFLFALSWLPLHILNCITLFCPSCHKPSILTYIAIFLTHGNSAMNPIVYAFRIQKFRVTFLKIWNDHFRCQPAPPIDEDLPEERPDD
Procedure: as §3

[7] = target: T1, human A3 receptors (hA3); test: Displacement of [125I]ABA binding at human A3 receptors expressed in HEK-293 cells
[8] = Table 2, read-out: hA2B Ki or IC50
[9] = read-out: hA2A Ki or IC50, Table 2
[10] = read-out: hA1 Ki or IC50, Table 2
[11] = Table 2, read-out: hA3 Ki or IC50
[12] = Table 2, read-out: rA1 Ki or IC50
[13] = Table 2, read-out: rA2A Ki or IC50
[14] = read-out: Ki value at human A2B receptors

recombinant human A2A receptors (hA2A), sequence (P29274 whole entry): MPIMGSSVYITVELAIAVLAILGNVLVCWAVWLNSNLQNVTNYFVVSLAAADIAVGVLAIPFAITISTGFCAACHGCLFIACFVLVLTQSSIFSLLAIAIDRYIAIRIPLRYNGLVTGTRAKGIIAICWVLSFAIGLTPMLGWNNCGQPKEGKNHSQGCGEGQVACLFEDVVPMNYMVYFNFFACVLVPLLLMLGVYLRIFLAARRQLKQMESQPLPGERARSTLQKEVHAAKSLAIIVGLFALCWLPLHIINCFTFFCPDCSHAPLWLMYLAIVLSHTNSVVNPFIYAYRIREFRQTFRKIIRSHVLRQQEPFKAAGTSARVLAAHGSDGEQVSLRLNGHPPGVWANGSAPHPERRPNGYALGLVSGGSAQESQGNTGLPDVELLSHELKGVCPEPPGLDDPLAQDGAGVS
T3 sequence (P30543 whole entry): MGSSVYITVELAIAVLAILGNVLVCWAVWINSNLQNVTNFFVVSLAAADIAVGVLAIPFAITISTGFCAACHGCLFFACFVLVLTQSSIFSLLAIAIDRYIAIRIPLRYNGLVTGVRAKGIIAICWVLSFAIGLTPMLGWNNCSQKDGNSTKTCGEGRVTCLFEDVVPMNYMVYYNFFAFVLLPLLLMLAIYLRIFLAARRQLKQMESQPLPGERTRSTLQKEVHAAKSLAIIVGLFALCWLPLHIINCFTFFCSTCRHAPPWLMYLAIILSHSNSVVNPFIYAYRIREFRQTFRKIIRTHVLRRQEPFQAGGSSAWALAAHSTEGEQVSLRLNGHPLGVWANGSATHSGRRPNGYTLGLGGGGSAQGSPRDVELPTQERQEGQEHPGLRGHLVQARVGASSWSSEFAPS

## CCCn1c(=O)c2[nH]c(-c3ccc(OCC(=O)NN)cc3)nc2n(CCC)c1=O [Compound 4f]
[1]
  Ki: 0.498 ± 0.139 µM
[2]; Table 4, read-out: rA1 Ki
  Ki: 0.016 ± 0.0005 µM
[3]; Table 4, read-out: rA2A Ki
  Ki: 0.0638 ± 0.0213 µM

## CCCn1c(=O)c2[nH]c(-c3ccc(OCC(=O)Nc4ccc(C(=O)OC)cc4)cc3)nc2n(CCC)c1=O [Compound 21, 8-[4-[((4-Methoxycarbonyl)phenylcarbamoylmethyl)oxy]phenyl]-1,3-di-(n-propyl)xanthine]
[4]; [8]
  Ki: 0.00393 ± 0.00135 µM
[5]; [9]
  Ki: 3.1 µM
other
  melting point: > 310 °C
[6]; [10]
  Ki: 0.225 ± 0.009 µM
[7]; [11]
  Ki: 0.363 ± 0.148 µM
[2]; [12]
  Ki: 0.0384 ± 0.0039 µM
[3]; [13]
  Ki: 0.541 ± 0.128 µM

## CCCn1c(=O)c2[nH]c(-c3ccc(OCC(=O)Nc4ccc([N+](=O)[O-])cc4)cc3)nc2n(CCC)c1=O [Compound 28, 8-[4-[((4-Nitro)phenylcarbamoylmethyl)oxy]phenyl]-1,3-di-(n-propyl)xanthine]
[4]
  selectivity for human A2B versus human A1 receptors: 35 fold
[4]; [14]
  Ki: 0.00152 µM
[5]; [9]
  Ki: 0.07 ± 0.0107 µM
other
  melting point: 307 °C
[6]; [10]
  Ki: 0.057 ± 0.0031 µM
[7]; [11]
  Ki: 0.138 ± 0.0171 µM
[2]; [12]
  Ki: 0.0131 ± 0.0039 µM
[3]; [13]
  Ki: 1.18 µM

## CCCn1c(=O)c2[nH]c(-c3ccc(OCC(=O)Nc4ccc(C(F)(F)F)cc4)cc3)nc2n(CCC)c1=O [Compound 29, 8-[4-[((4-Trifluoromethyl)phenylcarbamoylmethyl)oxy]phenyl]-1,3-di-(n-propyl)xanthine]
[4]; [14]
  Ki: 0.00214 µM
[5]; [9]
  Ki: 0.238 ± 0.028 µM
other
  melting point: > 310 °C
[6]; [10]
  Ki: 0.0612 ± 0.0082 µM
[7]; [11]
  Ki: 0.213 ± 0.094 µM
[2]; [12]
  Ki: 0.0446 ± 0.0065 µM
[3]; [13]
  Ki: 0.917 ± 0.258 µM

## CCCn1c(=O)c2[nH]c(-c3ccc(OCC(=O)Nc4ccc(F)cc4)cc3)nc2n(CCC)c1=O [Compound 30, 8-[4-[((4-Fluoro)phenylcarbamoylmethyl)oxy]phenyl]-1,3-di-(n-propyl)xanthine]
[4]
  selectivity for human A2B versus rat A1 receptors: 1 fold
[4]; [8]
  Ki: 0.00222 ± 0.00019 µM
[5]; [9]
  Ki: 0.0166 ± 0.0036 µM
other
  melting point: 298 °C
[6]; [10]
  Ki: 0.0179 ± 0.0045 µM
[7]; [11]
  Ki: 0.391 ± 0.147 µM
[2]; [12]
  Ki: 0.00272 ± 0.00051 µM
[3]; [13]
  Ki: 0.988 ± 0.518 µM

## CCCn1c(=O)c2[nH]c(-c3ccc(OCC(=O)Nc4ccc(Cl)cc4)cc3)nc2n(CCC)c1=O [Compound 31, 8-[4-[((4-Chloro)phenylcarbamoylmethyl)oxy]phenyl]-1,3-di-(n-propyl)xanthine]
[4]; [8]
  Ki: 0.00247 ± 0.00071 µM
[5]; [9]
  Ki: 0.187 ± 0.038 µM
other
  melting point: 309 °C
[6]; [10]
  Ki: 0.0497 ± 0.0142 µM
[7]; [11]
  Ki: 1.87 µM
[2]; [12]
  Ki: 0.00635 ± 0.00147 µM
[3]; [13]
  Ki: 0.995 ± 0.55 µM

## CCCn1c(=O)c2[nH]c(-c3ccc(OCC(=O)Nc4ccc(Br)cc4)cc3)nc2n(CCC)c1=O [Compound 32, 8-[4-[((4-Bromo)phenylcarbamoylmethyl)oxy]phenyl]-1,3-di-(n-propyl)xanthine]
[4]; [8]
  Ki: 0.00235 ± 1e-05 µM
[5]; [9]
  Ki: 1.64 µM
other
  melting point: > 310 °C
[6]; [10]
  Ki: 0.0735 ± 0.0233 µM
[7]; [11]
  Ki: 2.3 µM
[2]; [12]
  Ki: 0.00746 ± 0.00266 µM
[3]; [13]
  Ki: 0.221 ± 0.036 µM

## CCCn1c(=O)c2[nH]c(-c3ccc(OCC(=O)Nc4ccc(I)cc4)cc3)nc2n(CCC)c1=O [Compound 33, 8-[4-[((4-Iodo)phenylcarbamoylmethyl)oxy]phenyl]-1,3-di-(n-propyl)xanthine]
[4]
  selectivity for human A2B versus human A1 receptors: 140 fold
  selectivity for human A2B versus human A2A receptors: 2400 fold
  selectivity for human A2B versus human A3 receptors: 600 fold
[4]; [14]
  Ki: 0.00213 µM
[5]; [9]
  Ki: 5.14 µM
other
  melting point: > 310 °C
[6]; [10]
  Ki: 0.293 ± 0.067 µM
[7]; [11]
  Ki: 1.27 µM
[2]; [12]
  Ki: 0.0157 ± 0.0042 µM
[3]; [13]
  Ki: 0.152 ± 0.047 µM

## CCCn1c(=O)c2[nH]c(-c3ccc(/C=C/C(=O)NN4C(=O)C(C)=C(C)C4=O)cc3)nc2n(CCC)c1=O [Compound 34, 8-(4-(2-Carboxy-trans-vinyl)phenyl)-1,3-di-(n-propyl)xanthine N′,N′-[(1,2-Dimethyl)maleyl]hydrizide]
[4]; Table 3, read-out: hA2B Ki or IC50
  Ki: 0.0167 ± 0.003 µM
[5]; read-out: hA2A Ki, values marked (h), Table 3
  Ki: 0.223 ± 0.055 µM
other
  melting point: 302 to 303 °C
[6]; read-out: hA1 Ki, values marked (h), Table 3
  Ki: 0.105 ± 0.005 µM
[7]; Table 3, read-out: hA3 Ki or IC50
  Ki: 0.031 ± 0.0031 µM
[2]; Table 3, read-out: rA1 Ki or IC50
  Ki: 0.00394 ± 0.0012 µM
[3]; Table 3, read-out: rA2A Ki or IC50
  Ki: 0.406 ± 0.105 µM

## CCCn1c(=O)c2[nH]c(-c3ccc(OCC(=O)NN4C(=O)C(C)=C(C)C4=O)cc3)nc2n(CCC)c1=O [Compound 47, 8-[4-[(Carboxymethyl)oxy]phenyl]-1,3-di-(n-propyl)xanthine N,N-[(1,2-Dimethyl)maleyl]hydrazide]
[4]
  selectivity for human A2B versus human A1 receptors: 160 fold
  selectivity for human A2B versus human A2A receptors: 100 fold
  selectivity for human A2B versus human A3 receptors: 35 fold
[4]; Table 1, Ki ratio
  hA1/hA2B: 110
  hA2A/hA2B: 74
  hA3/hA2B: 25
[4]; Table 1, [125I]ABOPX, HEK-293, read-out: hA2B Ki or IC50
  Ki: 0.0266 ± 0.004 µM
[4]; Table 4, Ki ratio
  rA1/hA2B: 0.57
[4]; Table 4, footnote a: [125I]-ABOPX, read-out: hA2B Ki (value marked ^a) (converted)
  Ki: 0.0338 µM
[4]; Table 4, unmarked value, first of two binding assays, read-out: hA2B Ki
  Ki: 0.0194 ± 0.0062 µM
[4]; [14]
  Ki: 0.019 µM
[5]; read-out: hA2A Ki, values marked (h), Table 1, recombinant human A2A, HEK 293
  Ki: 1.97 µM
other
  melting point: > 310 °C
[6]; read-out: hA1 Ki, values marked (h)^a, Table 4, vs [3H]CPX, HEK-293
  Ki: 3.03 µM
[7]; Table 4, footnote a: [125I]ABA, read-out: hA3 Ki (value marked ^a)
  Ki: 0.67 ± 0.154 µM
[2]; Table 4, read-out: rA1 Ki
  Ki: 0.0111 ± 0.0024 µM
[3]; Table 4, read-out: rA2A Ki
  Ki: 0.126 ± 0.041 µM
